# In patent publication US20090209573A1, “COMPOUNDS AND COMPOSITIONS AS HEDGEHOG PATHWAY MODULATORS” (IRM LLC, priority 2004, published 2009):
# How the values were obtained:
# Type in all cases: cell-based
# [1] = system: Shh-mediated pathway activation (Gli-reporter in C3H10T1/2 cells); assay: Gli-Luc Reporter Assay for Hh Pathway Inhibition; conditions: C3H 10T1/2, recombinant mouse Shh protein 2 μg/mL, 48 hours, firefly luciferase normalized to Renilla, read-out: EC50 to block Shh-mediated pathway activation
# Procedure: Gli-Luc Reporter Assay for Hh Pathway Inhibition
# Mouse embryonic mesoderm fibroblasts C3H10T1/2 cells (obtained from American Type Culture Collection, ATCC, Manassas, Va.) are cultured in MEM-α medium (Gibco/Invitrogen, Carlsbad, Calif.) supplemented with 10% heat inactivated FBS (Gibco/Invitrogen, Carlsbad, Calif.), 50 unit/mL penicillin and 50 μg/mL of streptomycin (Gibco/Invitrogen, Carlsbad, Calif.) at 37° C. with 5% CO2 in air atmosphere. C3H10T1/2 cells in a 10 cm dish are co-transfected with 8 μg of Gli-reporter plasmid and 2 μg of Renilla luciferase control reporter (Promega, Madison, Wis.) with 30 μL of FuGENE6 (Roche Diagnostics, Indianapolis, Ind.) following the manufacturer's protocol. After 12 hours, cells are trypsinized and replated into a 96-well plate with MEM-α medium supplemented with 2% FBS, and treated with recombinant mouse Shh protein (expressed in E. coli, 2 μg/mL) and different concentrations of a compound of the invention. After 48 hours, the firefly luciferase and Renilla luciferase activities are assayed with the Dual-Glo™ Luciferase Assay System (Promega, Madison, Wis.). Firefly luciferase activity is normalized to Renilla luciferase activity. The EC50 is measured when the effect of the compound reduces the luminescence signal by 50%.
# [2] = system: normal human dermal fibroblast cells; assay: Cyto-toxicity Assay (Cell Titer-Glo cell viability), control cells; conditions: 2 days, luminescent cell viability
# Procedure: (§1) A cytotoxicity assay is performed to compare the effects of a compound of the invention on medulloblastoma cells (Daoy cells), basal cell carcinoma cells (TE354.T cells) and control cells (human normal fibroblast) according to the following procedure:
# Normal human dermal fibroblast cells (Clonetics) are cultured in Fibroblast Growth Medium (Clonetics).
# (§2) Each of the above cell lines are independently seeded into 96-well plates and cultured to a density of 5,000-10,000 cells/well. A compound of the invention, at different concentrations, is added into the cell cultures. After 2 days, the cell viability is evaluated with Cell Titer-Glo Luminescent Cell Viability Assay Kit (Promega) following the manufacturer's protocol. The cell viability is directly measured by luminescent signaling and EC50s are measured when the signal is inhibited 50%.
# [3] = system: Daoy cells (medulloblastoma cell line); assay: Cyto-toxicity Assay (Cell Titer-Glo cell viability), Daoy cells; conditions: Homo sapiens, 48 h, 2 days, luminescent cell viability, read-out: EC50 against the proliferation of Daoy cells
# Procedure: as §1
# Daoy cells (medulloblastoma cell line) are purchased from ATCC, and cultured in Minimum essential medium (Eagle) with 2 mM L-glutamine and Earle's BSS adjusted to contain 1.5 g/L sodium bicarbonate, 0.1 mM non-essential amino acids, and 1.0 mM sodium pyruvate and 10% FBS at 37° C. with 5% CO2 in an air atmosphere.
# as §2
smiles,measurement,setting,value
"CCOc1ccc(Nc2nc(-c3c(C)nc4ccccn34)cs2)cc1 [Example 1, (4-Ethoxy-phenyl)-[4-(2-methyl-imidazo[1,2-a]pyridin-3-yl)-thiazol-2-yl]-amine]",EC50,[1],30 nM
same,toxic effect on normal human dermal fibroblast cells (control),[2],no toxic effect
same,EC50,[3],30 nM
